According to ChEMBL document CHEMBL1157360, “Characterization of an integron carrying blaIMP-1 and a new aminoglycoside resistance gene, aac(6')-31, and its dissemination among genetically unrelated clinical isolates in a Brazilian hospital” (2007):
≈ marks a conversion by molar mass, not a printed value.

Legend:
Format in all cases: functional
[1] = system: Acinetobacter sp.; test: Antimicrobial activity against Acinetobacter sp. 5248 isolate harboring bla IMP-1 carrying integron In86 containing aminoglycoside resistance gene aac(6')-3
[2] = system: Acinetobacter baumannii; test: Antimicrobial activity against Acinetobacter baumannii 501 isolate harboring bla IMP-1 carrying integron In86 containing aminoglycoside resistance gene aac(6')-3
[3] = system: Acinetobacter baumannii; test: Antimicrobial activity against Acinetobacter baumannii 9043 isolate harboring bla IMP-1 carrying integron In86 containing aminoglycoside resistance gene aac(6')-3
[4] = system: Pseudomonas putida; test: Antimicrobial activity against Pseudomonas putida 12346 isolate harboring bla IMP-1 carrying integron In86 containing aminoglycoside resistance gene aac(6')-3
[5] = system: Acinetobacter sp.; test: Antimicrobial activity against Acinetobacter sp. 5227 isolate harboring bla IMP-1 carrying integron In86 containing aminoglycoside resistance gene aac(6')-3
[6] = system: Acinetobacter baumannii; test: Antimicrobial activity against Acinetobacter baumannii 694 isolate harboring bla IMP-1 carrying integron In86 containing aminoglycoside resistance gene aac(6')-3
[7] = system: Acinetobacter baumannii; test: Antimicrobial activity against Acinetobacter baumannii 696 isolate harboring bla IMP-1 carrying integron In86 containing aminoglycoside resistance gene aac(6')-3
[8] = system: Acinetobacter baumannii; test: Antimicrobial activity against Acinetobacter baumannii 695 isolate harboring bla IMP-1 carrying integron In86 containing aminoglycoside resistance gene aac(6')-3
[9] = system: Escherichia coli; test: Antimicrobial activity against Escherichia coli DH5alpha
[10] = system: Escherichia coli; test: Antimicrobial activity against Escherichia coli DH5alpha harboring recombinant pIMPAR31

Row | SMILES | MIC [1] | MIC [2] | MIC [3] | MIC [4] | MIC [5] | MIC [6] | MIC [7] | MIC [8] | MIC [9] | MIC [10]
1 | CC1(C)S[C@@H]2[C@H](NC(=O)[C@H](C(=O)O)c3ccsc3)C(=O)N2[C@H]1C(=O)O [TICARCILLIN] | > 128 µg/mL | > 128 µg/mL | > 128 µg/mL | > 128 µg/mL | > 128 µg/mL | > 128 µg/mL | > 128 µg/mL | > 128 µg/mL |  | 
2 | CO/N=C(\C(=O)N[C@@H]1C(=O)N2C(C(=O)[O-])=C(C[N+]3(C)CCCC3)CS[C@H]12)c1csc(N)n1 | > 16 µg/mL | > 16 µg/mL | > 16 µg/mL | > 16 µg/mL | > 16 µg/mL | > 16 µg/mL | > 16 µg/mL | > 16 µg/mL |  | 
3 | C[C@@H](O)[C@H]1C(=O)N2C(C(=O)O)=C(S[C@@H]3CN[C@H](C(=O)N(C)C)C3)[C@H](C)[C@H]12 [MEROPENEM] | > 8 µg/mL | > 8 µg/mL | > 8 µg/mL | > 8 µg/mL | > 8 µg/mL | > 8 µg/mL | > 8 µg/mL | > 8 µg/mL |  | 
4 | NC[C@H]1O[C@H](O[C@H]2[C@H](O)[C@@H](O[C@H]3O[C@H](CO)[C@@H](O)[C@H](N)[C@H]3O)[C@H](N)C[C@@H]2N)[C@H](N)C[C@@H]1O [TOBRAMYCIN] | 8 µg/mL (≈ 17.1 µM) | > 16 µg/mL | 16 µg/mL (≈ 34.2 µM) | > 16 µg/mL | 16 µg/mL (≈ 34.2 µM) | 16 µg/mL (≈ 34.2 µM) | 16 µg/mL (≈ 34.2 µM) | > 16 µg/mL | 0.25 µg/mL (≈ 0.535 µM) | 4 µg/mL
5 | O=C(O)c1cn(C2CC2)c2cc(N3CCNCC3)c(F)cc2c1=O [CIPROFLOXACIN] | > 4 µg/mL | 0.12 µg/mL (≈ 0.362 µM) | > 2 µg/mL | > 2 µg/mL | 2 µg/mL (≈ 6.04 µM) | 1 µg/mL (≈ 3.02 µM) | 0.5 µg/mL (≈ 1.51 µM) | > 4 µg/mL |  | 
6 | CCN[C@@H]1C[C@H](N)[C@@H](O[C@H]2OC(CN)=CC[C@H]2N)[C@H](O)[C@H]1O[C@H]1OC[C@](C)(O)[C@H](NC)[C@H]1O [NETILMICIN] | 16 µg/mL (≈ 33.6 µM) | > 32 µg/mL | > 32 µg/mL | > 32 µg/mL | > 32 µg/mL | 32 µg/mL (≈ 67.3 µM) | 32 µg/mL (≈ 67.3 µM) | 8 µg/mL (≈ 16.8 µM) | 0.5 µg/mL (≈ 1.05 µM) | 4 µg/mL
7 | CCN1CCN(C(=O)N[C@@H](C(=O)N[C@@H]2C(=O)N3[C@@H]2SC(C)(C)[C@@H]3C(=O)O)c2ccccc2)C(=O)C1=O [PIPERACILLIN] | > 128 µg/mL | 32 µg/mL (≈ 61.8 µM) | > 128 µg/mL | 64 µg/mL (≈ 124 µM) | > 128 µg/mL | > 128 µg/mL | > 128 µg/mL | 128 µg/mL (≈ 247 µM) |  | 
8 | C[C@H]1[C@H](NC(=O)/C(=N\OC(C)(C)C(=O)O)c2csc(N)n2)C(=O)N1S(=O)(=O)O [AZTREONAM] | > 16 µg/mL | > 16 µg/mL | > 16 µg/mL | > 16 µg/mL | > 16 µg/mL | > 16 µg/mL | > 16 µg/mL | > 16 µg/mL |  | 
9 | NCC[C@H](O)C(=O)N[C@@H]1C[C@H](N)[C@@H](O[C@H]2O[C@H](CN)[C@@H](O)[C@H](O)[C@H]2O)[C@H](O)[C@H]1O[C@H]1O[C@H](CO)[C@@H](O)[C@H](N)[C@H]1O [AMIKACIN] | 32 µg/mL (≈ 54.6 µM) | 32 µg/mL (≈ 54.6 µM) | > 32 µg/mL | > 32 µg/mL | > 32 µg/mL | > 32 µg/mL | > 32 µg/mL | 32 µg/mL (≈ 54.6 µM) | 0.5 µg/mL (≈ 0.854 µM) | 8 µg/mL
10 | COc1c(N2CCNC(C)C2)c(F)cc2c(=O)c(C(=O)O)cn(C3CC3)c12 (stereo not drawn) [GATIFLOXACIN] | 4 µg/mL (≈ 10.7 µM) | 0.12 µg/mL (≈ 0.32 µM) | > 4 µg/mL | > 4 µg/mL | 1 µg/mL (≈ 2.66 µM) | 0.25 µg/mL (≈ 0.666 µM) | 0.06 µg/mL (≈ 0.16 µM) | 4 µg/mL (≈ 10.7 µM) |  | 
11 | C[C@H]1COc2c(N3CCN(C)CC3)c(F)cc3c(=O)c(C(=O)O)cn1c23.C[C@H]1COc2c(N3CCN(C)CC3)c(F)cc3c(=O)c(C(=O)O)cn1c23.O [LEVOFLOXACIN] | 4 µg/mL | 0.25 µg/mL | > 4 µg/mL | > 4 µg/mL | 2 µg/mL | 0.25 µg/mL | 0.25 µg/mL | > 4 µg/mL |  | 
12 | CN[C@@H]1[C@@H](O)[C@@H](O[C@@H]2[C@@H](O)[C@H](O[C@H]3O[C@H](CN)[C@@H](O)[C@H](O)[C@H]3O)[C@@H](N)C[C@H]2NC(=O)[C@@H](O)CN)OC[C@]1(C)O [ISEPAMICIN] |  |  |  |  |  |  |  |  | 0.12 µg/mL (≈ 0.211 µM) | 4 µg/mL
13 | CN[C@@H]1[C@@H](O)[C@@H](O[C@@H]2[C@@H](O)[C@H](O[C@H]3OC(CN)=CC[C@H]3N)[C@@H](N)C[C@H]2N)OC[C@]1(C)O [SISOMICIN] |  |  |  |  |  |  |  |  | ≤ 0.25 µg/mL | 8 µg/mL
14 | CC(C)(O/N=C(\C(=O)N[C@@H]1C(=O)N2C(C(=O)[O-])=C(C[n+]3ccccc3)CS[C@H]12)c1csc(N)n1)C(=O)O [CEFTAZIDIME] | > 16 µg/mL | > 16 µg/mL | > 16 µg/mL | > 16 µg/mL | > 16 µg/mL | > 16 µg/mL | > 16 µg/mL | > 16 µg/mL |  | 
15 | C[C@@H](O)[C@H]1C(=O)N2C(C(=O)O)=C(SCCNC=N)C[C@H]12 [IMIPENEM ANHYDROUS] | > 8 µg/mL | > 8 µg/mL | > 8 µg/mL | > 8 µg/mL | > 8 µg/mL | > 8 µg/mL | > 8 µg/mL | > 8 µg/mL |  | 
16 | NC[C@H]1O[C@H](O[C@H]2[C@H](O)[C@@H](O[C@H]3O[C@H](CO)[C@@H](O)[C@H](N)[C@H]3O)[C@H](N)C[C@@H]2N)[C@H](O)[C@@H](O)[C@@H]1O [KANAMYCIN] |  |  |  |  |  |  |  |  | 0.5 µg/mL (≈ 1.03 µM) | 
17 | CC1(C)S[C@@H]2[C@H](NC(=O)[C@H](N)c3ccccc3)C(=O)N2[C@H]1C(=O)O [AMPICILLIN] | > 16 µg/mL | > 16 µg/mL | > 16 µg/mL | > 16 µg/mL | > 16 µg/mL | > 16 µg/mL | > 16 µg/mL | > 16 µg/mL |  | 
